# Data from patent US20230131339A1, “EPI-X4 BASED PEPTIDES AND DERIVATIVES THEREOF” (Universitaet Ulm, priority 2020, published 2023).
# Where two headings read alike, the source gives them in different places. Where a SMILES comes first, the peptide text is derived from it. Where no end group is shown, it is not given here. Side-chain parts run from the residue outwards. [ ]: non-standard residue; d: D form. The star is where a group is joined. Palmitoyl = CCCCCCCCCCCCCCCC(=O)*; Myristoyl = CCCCCCCCCCCCCC(=O)*; Glu = glutamate linker
# T1: CXC chemokine receptor type 4 (CXCR4) (human, UniProt P61073 1-352)
# T1 chain: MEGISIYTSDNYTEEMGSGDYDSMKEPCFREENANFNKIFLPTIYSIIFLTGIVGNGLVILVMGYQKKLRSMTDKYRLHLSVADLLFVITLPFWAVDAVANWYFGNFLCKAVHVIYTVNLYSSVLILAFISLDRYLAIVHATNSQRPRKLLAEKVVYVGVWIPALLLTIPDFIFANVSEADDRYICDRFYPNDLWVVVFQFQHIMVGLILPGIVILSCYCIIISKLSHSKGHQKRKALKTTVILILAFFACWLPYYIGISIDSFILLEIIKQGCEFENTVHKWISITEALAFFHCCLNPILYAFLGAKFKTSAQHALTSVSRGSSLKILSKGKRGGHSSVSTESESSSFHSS
# Assays:
# [1] = test system: CXCR4-tropic X4-HIV-1 (NL4-3); assay type: cell-based
# [2] = Functional stability assay in human plasma; conditions: human, plasma
# Experimental: Fourth, the stability of peptides in human plasma and whole human blood was tested (FIG. 4). The functional stability of EPI-X4 (SEQ ID NO.: 1) derivatives was screened using a CXCR4 antibody-based screening approach. Peptides were diluted in full human plasma or blood (>99%) and the functional activity was then measured after either 2 hours or 8 hours and compared to a sample that was not incubated in plasma or blood.
# In this test, the peptides were incubated in human plasma for a certain time period.
# Stability assay. Whole blood was collected from healthy donors in EDTA tubes and directly used or subsequently centrifuged for 15 min at 2,500×g to obtain plasma. Plasma from 6 donors was pooled and stored in aliquots at −80° C. Compounds were 200-fold diluted in human plasma or whole human blood to reach final concentrations of 20 μM. The t=0 sample was immediately taken and stored at −80° C. Plasma/compound or blood/compound mixture was then transferred to 37° C. and shook at 350 rpm. At given time points samples were taken and stored at −80° C.°. For measuring the functional activity of the plasma/peptide samples, the mixtures were thawed and diluted in ice cold PBS. 12G5-APC antibody competition was then performed as described before. For blood/peptide functional stability, samples were thawed and centrifuged at 14,000 rpm to remove cells and debris. The supernatant was then diluted in PBS and 12G5-antibody competition assay was performed. After the 2 hours incubation, the cells were washed and 50 μl of 1-step-Fix/Lyse solution (Thermo Fisher #00-5333-54) was added for 15 minutes at room temperature. Afterwards cells were washed again and analyzed for bound antibody.
# [3] = test system: CXCL12 induced migration of T-cells; experiment: Migration assay (transwell, Jurkat cells); assay type: cell-based
# Experimental: For each peptide, three independent experiments were performed. The error bars refer to the standard deviation.
# Migration assay. Migration assays were performed using 96-well transwell assay plates (Corning Incorporated, Kennebunk, Me., USA) with 5 μm polycarbonate filters. […] Next, 75 μL (0.5×10^5 cells) of Jurkat cells (in assay buffer), together with/without the compounds, were added into the upper chambers. After 4 h at 37° C. (5% CO2), 100 μL of the lower chambers were transferred to a fresh 96 V-well plate and analyzed with Cell-Titer-Glo® assay (Promega, Madison, Wis., USA). The percentage of migrated cells was calculated as described by Balabanian et al. (2005). In order to obtain the relative migration in %, the percentage of migrated cells were normalized to the CXCL12-only control.
# [4] = test system: CXCL12-induced AKT signaling; experiment: ERK/AKT signaling assay in SupT1 cells: AKT phosphorylation; assay type: cell-based
# Experimental: (§1) Third, the activity of the claimed EPI-X4 derivatives was tested by the effect on CXCL12/CXCR4-mediated ERK (Extracellular-signal Regulated Kinases) and AKT (a serine/threonine-protein kinase) signaling (FIG. 3). In that assay CXCR4 expressing cells are stimulated with the CXCR4 chemokine-ligand CXCL12, which subsequently leads to phosphorylation of ERK and AKT. Preincubation of cells with CXCR4-antagonists blocks those pathways. […] Two or three independent experiments were carried out in triplicates for each peptide in each assay. The error bars refer to the standard deviation.
# (§2) ERK/AKT signaling assay. CXCL12 induced ERK and AKT phosphorylation was determined in SupT1 cells. For this, 100,000 cells were seeded per well in a 96-V well plate in 100 μl medium supplemented with 1% FCS. Cells were incubated for 2 hours at 37° C. before 5 μl of compounds were added. After 15 min incubation at 37° C. cells were stimulated by adding 5 μl CXCL12 diluted in PBS to reach a final concentration of 100 ng/ml. Cells were further incubated for 2 min before the reaction was stopped by adding 20 μl of 10% PFA. Cells were fixed for 15 min at 4° C. before PFA was removed and cells permeabilized by adding 100 μl ice cold methanol. After 15 min at 4° C. the methanol was removed, cells were washed and 30 μl primary antibody was added (phospho-p44/42 MAPK (Erk1) (Tyr204)/(Erk2) (Tyr187) (D1H6G) mouse mAb #5726; phosphor-Akt (Ser473) (193H12) rabbit mAb #4058 Cell Signaling) for 1 hour at 4° C. After the antibody was removed and cells were washed secondary antibody was added for 30 min. Cells were washed afterwards and subsequently analyzed by flow cytometry.
# [5] = test system: CXCL12-induced ERK signaling; experiment: ERK/AKT signaling assay in SupT1 cells: ERK phosphorylation; assay type: cell-based
# Experimental: as §1, §2
# [6] = biological target: T1, CXC chemokine receptor type 4 (CXCR4); experiment: 12G5 antibody competition
# [7] = biological target: T2, CXC chemokine receptor type 4 (CXCR4) (human, UniProt P61073 1-352); experiment: cell-based or functional assay
# [8] = biological target: T1, CXC chemokine receptor type 4 (CXCR4); experiment: competition
# [9] = biological target: T2, CXC chemokine receptor type 4 (CXCR4); experiment: 12G5-APC antibody competition on SupT1 cells, flow cytometry
# Experimental: To the right of the diagrams, an assignment of the curves to the tested peptides is explained. […] Three independent experiments were carried out for each peptide in each assay. The error bars refer to the standard deviation.
# Antibody competition assay. Competition of compounds with antibody binding was performed on SupT1 cells. For that cells were washed in PBS containing 1% FCS and 50,000 cells were then seeded per well in a 96 V-well plate. Buffer was removed and plates were precooled at 4° C. […] The antibody was used at a concentration closed to its determined Kd. 15 μl compounds were then added to the cells and 15 μl antibody immediately afterwards. Plates were incubated at 4° C. in the dark for 2 hours. Afterwards cells were washed twice with PBS containing 1% FCS and fixed with 2% PFA. Antibody binding was analyzed by flow cytometry (FACS CytoFLEX; Beckman Coulter®).
molecule,measurement,setting,value
ILRWSRK(Glu-Myr)LPCVS (ILRWSRK([Glu-Myristoyl])LPCVS) [JM #204],remaining activity in plasma in vivo 4 hours post injection,"mouse, in vivo, iv, 4 h",lost
"CCCCCCCCCCCCCCCC(=O)NCCCC[C@H](NC(=O)[C@H](CCCNC(=N)N)NC(=O)[C@H](CO)NC(=O)[C@H](Cc1c[nH]c2ccccc12)NC(=O)[C@H](CCCNC(=N)N)NC(=O)[C@H](CCSC)NC(=O)[C@H](N)CC(C)C)C(N)=O [JM #180, d-LMRWSRK(Pal)-NH2] (H-[dL]MRWSRK(Palmitoyl)-NH2)",anti-HIV-1 activity (in words),[1],strongly increased anti-HIV-1 activity
same,remaining activity in plasma in vivo 4 hours post injection,"mice, i.v. tail vein, 4 hours post injection",29%
same,remaining activity in plasma in vivo 8 hours post injection,"mice, i.v. tail vein, 8 hours post injection",about 9%
CC[C@H](C)[C@H](N)C(=O)N[C@@H](CC(C)C)C(=O)N[C@@H](CCCNC(=N)N)C(=O)N[C@@H](Cc1c[nH]c2ccccc12)C(=O)N[C@@H](CO)C(=O)N[C@@H](CCCNC(=N)N)C(=O)N[C@@H](CCCCN)C(=O)N[C@@H](CC(C)C)C(=O)N1CCC[C@H]1C(N)=O [JM #114] (H-ILRWSRKLP-NH2),functional stability in human plasma (in words),[2],rapidly inactivated in plasma
same,inhibition of CXCL12 induced migration of T-cells (in words),[3],even more effective than the full-length peptide
CC[C@H](C)[C@H](N)C(=O)N[C@@H](CC(C)C)C(=O)N[C@@H](CCCNC(=N)N)C(=O)N[C@@H](Cc1c[nH]c2ccccc12)C(=O)N[C@@H](CO)C(=O)N[C@@H](CCCNC(=N)N)C(=O)N[C@@H](CCCCN)C(=O)N[C@@H](CCSC)C(=O)N1CCC[C@H]1C(=O)N[C@@H](CS)C(=O)N[C@@H](CC(C)C)C(=O)N[C@@H](CO)C(=O)O [JM #18] (H-ILRWSRKMPCLS-OH; C-terminus assumed),reduction of CXCL12-induced AKT signaling,[4]; 0.1 μM,about 40%
same,reduction of CXCL12-induced AKT signaling,[4]; 1 μM,~70%
same,reduction of CXCL12-induced ERK signaling,[5]; 0.1 μM,about 40%
same,reduction of CXCL12-induced ERK signaling,[5]; 1 μM,~70%
"CC[C@H](C)[C@H](N)C(=O)N[C@@H](CC(C)C)C(=O)N[C@@H](CCCNC(=N)N)C(=O)N[C@@H](Cc1c[nH]c2ccccc12)C(=O)N[C@@H](CO)C(=O)N[C@@H](CCCNC(=N)N)C(=O)N[C@@H](CCCCN)C(N)=O [JM #118, ILRWSRK-NH2] (H-ILRWSRK-NH2)",functional stability in human plasma (in words),[2],rapidly inactivated in plasma
same,inhibition of CXCL12 induced migration of T-cells (in words),[3],even more effective than the full-length peptide
"CCCCCCCCCCCCCCCC(=O)NCCCC[C@H](NC(=O)[C@H](CCCCN)NC(=O)[C@H](CO)NC(=O)[C@H](Cc1c[nH]c2ccccc12)NC(=O)[C@H](CCCNC(=N)N)NC(=O)[C@@H](NC(=O)[C@@H](N)[C@@H](C)CC)C(C)C)C(=O)N[C@H](C(=O)N1CCC[C@H]1C(=O)N[C@@H](CS)C(=O)N[C@H](C(=O)N[C@@H](CO)C(=O)O)C(C)C)C(C)C [JM #169, IVRWSKK(Pal)VPCVS] (H-IVRWSKK(Palmitoyl)VPCVS-OH; C-terminus assumed)",reduction of CXCL12-induced AKT signaling,[4]; 0.1 μM,85%
same,reduction of CXCL12-induced AKT signaling,[4]; 1 μM,completely
same,reduction of CXCL12-induced ERK signaling,[5]; 0.1 μM,over 70%
same,reduction of CXCL12-induced ERK signaling,[5]; 1 μM,almost completely blocked
[dI]LRWSRKLP-NH2 [JM#174],IC50,[6],480 nM
same,"IC50, HIV inhibition assay",[7],> 150 nM
ILRWSRK([Glu-Palmitoyl])-NH2 [JM#192],IC50,[8],4 nM
[dM]LRWSRKK([Glu-Palmitoyl])-NH2 [JM#197],IC50,[6],5 nM
[dL]MRWSRKK([Glu-Palmitoyl])-NH2 [JM#195],IC50,[6],3 nM
[dL]MRWSRKMPCVS [JM#36],IC50,[6],305 nM
ILRWSRK(Ac)LPCVS [JM#200],IC50,[8],213 nM
same,"IC50, HIV inhibition assay",[7],50 to 150 nM
[dL]MRWSRK(Palmitoyl)MP-NH2 (N-terminus assumed; SMILES CCCCCCCCCCCCCCCC(=O)NCCCC[C@H](NC(=O)[C@H](CCCNC(=N)N)NC(=O)[C@H](CO)NC(=O)[C@H](Cc1c[nH]c2ccccc12)NC(=O)[C@H](CCCNC(=N)N)NC(=O)[C@H](CCSC)NC(=O)[C@H](N)CC(C)C)C(=O)N[C@@H](CCSC)C(=O)N1CCC[C@H]1C(N)=O) [JM#178],"IC50, HIV inhibition assay",[7],5 to 10 nM
same,fold more effective binding than EPI-X4,[9],> 2000 fold
same,fold more effective than WSC02,[9],~300 fold
IVRWSKK(Palmitoyl)VP-NH2 (N-terminus assumed; SMILES CCCCCCCCCCCCCCCC(=O)NCCCC[C@H](NC(=O)[C@H](CCCCN)NC(=O)[C@H](CO)NC(=O)[C@H](Cc1c[nH]c2ccccc12)NC(=O)[C@H](CCCNC(=N)N)NC(=O)[C@@H](NC(=O)[C@@H](N)[C@@H](C)CC)C(C)C)C(=O)N[C@H](C(=O)N1CCC[C@H]1C(N)=O)C(C)C) [JM#167],fold more effective binding than EPI-X4,[9],> 2000 fold
same,fold more effective than WSC02,[9],~300 fold
